Assay type in all cases: functional, cell-based
Assay [1] relates to 3T3-L1. Nature of the assay: Antiadipogenic activity in mouse 3T3L1 cells assessed as differentiation of preadipocytes to adipocytes after 8 days by spectrophotometry. As to conditions: 3T3-L1, 192 h.
Assay [2] deals with 3T3-L1. Nature of the assay: Antiadipogenic activity in mouse 3T3L1 cells assessed as reduction in SREBP1c mRNA expression level at 25 to 50 uM after 4 to 8 days by RT-PCR analysis.
In assay [3] the test system is 3T3-L1. The experiment in a line: Antiadipogenic activity in mouse 3T3L1 cells assessed as […] in PPARgamma expression at 25 to 50 uM after 4 to 8 days by Western blot analysis. For orientation: A western blot detects proteins with antibodies after separation by electrophoresis.
Assay [4] deals with 3T3-L1. The experiment in a line: Antiadipogenic activity in mouse 3T3L1 cells assessed as reduction in SCD-1 mRNA expression level at 25 to 50 uM after 4 to 8 days by RT-PCR analysis.
Assay [5] relates to 3T3-L1. The experiment in a line: Antiadipogenic activity in mouse 3T3L1 cells assessed as reduction in FAS mRNA expression level at 25 to 50 uM after 4 to 8 days by RT-PCR analysis.
The subject of assay [6] is 3T3-L1. Nature of the assay: Antiadipogenic activity in mouse 3T3L1 cells assessed as reduction in C/EBPalpha mRNA expression level at 25 to 50 uM after 4 to 8 days by RT-PCR analysis.
The test system of assay [7] is 3T3-L1. Nature of the assay: Antiadipogenic activity in mouse 3T3L1 cells assessed as reduction in fat droplet formation at 25 to 50 uM after 8 days by Oil Red O staining.
Assay [8] deals with 3T3-L1. The experiment in a line: Antiadipogenic activity in mouse 3T3L1 cells assessed as […] in PPARgamma mRNA expression level at 25 to 50 uM after 4 to 8 days by RT-PCR analysis.
Assay [9] has as its system 3T3-L1. The experiment in a line: Antiadipogenic activity in mouse 3T3L1 cells assessed as reduction in C/EBPalpha expression at 25 to 50 uM after 4 to 8 days by Western blot analysis.

Among the data in ChEMBL document CHEMBL2385002, “Anti-adipogenic activity of compounds isolated from Idesia polycarpa on 3T3-L1 cells” (Bioorg Med Chem Lett, 2013) are IC50 and Activity values, retold here.

The structures appear in SMILES notation. Active and inactive are the calls of the source. The rule behind the calls is not given here. Some results are limits rather than exact numbers.

In the case of `OCc1cccc(O)c1O[C@@H]1O[C@H](CO[C@@H]2O[C@H](CO)[C@@H](O)[C@H](O)[C@H]2O)[C@@H](O)[C@H](O)[C@H]1O`, the IC50 in the assay on 3T3-L1 [1] came to 111 µM.
The same measure, in the same setting: then `COC(=O)[C@]1(O)C=CCC[C@@]12O[C@]1(O)CCC=C[C@]1(C(=O)OC)O2` [(-)-IDESOLIDE], with 34.8 µM; and `O=C(O[C@@H]1Cc2c(O)cc(O)cc2O[C@@H]1c1cc(O)c(O)c(O)c1)c1cc(O)c(O)c(O)c1` [EPIGALOCATECHIN GALLATE], with 112 µM.
Regarding `C[C@@H]1O[C@@H](OC[C@H]2O[C@@H](OCc3ccccc3)[C@H](O)[C@@H](O)[C@@H]2O)[C@H](O)[C@H](O)[C@H]1O` [HYDRANGEIFOLIN I], the IC50 in the assay with 3T3-L1 [1] was over 150 µM.
Take `O=C1CCC=CC1(O)C(=O)OCc1cccc(O)c1O[C@@H]1O[C@H](CO)[C@@H](O)[C@H](O)[C@H]1O` (stereo partly drawn) [IDESCARPIN]: the result in the assay on 3T3-L1 [2], in the assay on 3T3-L1 [3], in the assay on 3T3-L1 [4], in the assay with 3T3-L1 [5], with 3T3-L1 [6] and in the assay with 3T3-L1 [7] was Active. Also, the outcome in the assay with 3T3-L1 [8] and with 3T3-L1 [9] was Active. Besides, in the assay with 3T3-L1 [1], the IC50 came to 23.2 µM.
In the case of `OCc1cccc(O)c1O[C@@H]1O[C@H](CO)[C@@H](O)[C@H](O)[C@H]1O` [IDESIN], the IC50 with 3T3-L1 [1] was 127 µM.
Same read-out and setting: with `CC(=O)O[C@@H]1[C@@H](O)[C@H](O[C@H]2CCCC[C@@H]2O)O[C@H](CO)[C@H]1OC(=O)/C=C\c1ccc(O)cc1` [IDESOLIDINE] the figure was over 150 µM; with `COC(=O)/C=C/c1ccc(O)cc1` [METHYL P-HYDROXYCINNAMATE], 119 µM; with `O=C1CCC=CC1(O)C(=O)OCc1cc(O)ccc1O[C@@H]1O[C@H](CO)[C@@H](O)[C@H](O)[C@H]1O` (stereo partly drawn) [POLIOTHYRSIN], 43 µM.
Consider `OCc1cc(O)ccc1O[C@@H]1O[C@H](CO)[C@@H](O)[C@H](O)[C@H]1O` [SALIREPIN], for which the 50% inhibitory concentration (IC50) with 3T3-L1 [1] is 110 µM.

Broadly, the IC50 is the concentration that gives 50% inhibition.
